Measured values as given in patent publication US10835537B2, “Combination therapies for treatment of cancer” (Sumitomo Dainippon Pharma Oncology, Inc., priority 2015, dated 2020).

What was measured:
MV 4-11 cells = test: Cell viability, Cell titer-glo assay; assay type: cell-based; conditions: for EC50: Homo sapiens, MV4-11, MV 4-11 cells, wash
Protocol: MV 4-11 cells were dosed first with alvocidib (80 nM) or DMSO for 24 hours followed by a wash step. Following the wash step, the cells were dosed with azacitidine (30 μM to 0.001 μM) for an additional 72 hours, Measurement of cell viability was taken at 96 hours from the initial dose (72 hours after the wash step) and normalized to data collected for cells dosed with alvocidib only. Cell viability was then assessed in a Cell titer-glo assay, according to manufacturer protocol. Cell viability was then plotted against concentration on a logarithmic scale (FIG. 2).
FIGS. 5A and 5B present data from combination treatment of Alvocidib and decitabine in MV4-11 cells. MV4-11 cells were first treated for 96 hours with alvocidib+decitabine according to the general procedures of Example 2 at the concentrations indicated in FIG. 5A. […] Here, a change of nearly 10-fold in the IC50 (μM) of decitabine with the addition of alvocidib (100 nM) was observed when alvocidib was administered prior to decitabine.

MCL-1 = MCL-1 expression by western blotting in MV4-11 cells; assay type: cell-based
Protocol: An AML cell line, MV-4-11, expresses MCL-1. MCL-1 is a key anti-apoptotic protein in MV-4-11 cells. Alvocidib, a CDK9 inhibitor, lowers the expression of MCL-1, which is already well documented in the literature. Alvocidib down-regulates MCL-1 in a dose dependent manner (FIG. 1A). The dose dependence is observed by monitoring the relative expression of MCL-1 compared to β-actin when cells are dosed with alvocidib at concentrations of 0-8 μM. MV4-11 cells were treated with Alvocidib for 16 hrs in vitro, Following treatment, cells were harvested and prepared using standard western blotting technique for immuno-detection of MCL-1 and β-actin expression.
In addition, alvocidib also down-regulates MCL-1 in a time-dependent manner (FIG. 1B). The time dependence is observed by monitoring the relative expression of MCL-1 compared top-actin over time. The relative expression of MCL-1 was measured at 0.5-48 hour time points after dosing with 80 nM of alvocidib.
MV4-11 cells were treated with 80 nM Alvocidib in vitro for the times indicated. Following treatment, cells were harvested and prepared using standard western blotting technique for immunodetection of MCL-1 and β-actin expression.

In the case of `Nc1ncn([C@H]2C[C@H](O)[C@@H](CO)O2)c(=O)n1` [decitabine], the “Change in IC50 of decitabine with the addition of alvocidib” value (MV 4-11 cells; MV4-11 cells, alvocidib 100 nM 24 hours pre-treatment, then decitabine 72 hours) is reported as ~10 fold.

In the case of `CN1CC[C@H](c2c(O)cc(O)c3c(=O)cc(-c4ccccc4Cl)oc23)[C@H](O)C1` [Alvocidib], the “MCL-1 expression compared to β-actin” value (MCL-1; 80 nM, 1 hour post-treatment) is reported as “reduced MCL-1 expression”, the “MCL-1 expression compared to β-actin” value (MCL-1; 80 nM, 16 hrs) is reported as “nearly completely blocked” and the “MCL-1 expression compared to β-actin” value (MCL-1; 80 nM, up to 48 hours following treatment) is reported as “inhibition of expression was maintained”. For the same molecule, the “MCL-1 expression compared to β-actin” value (MCL-1; 0.1 μM, 16 hrs) was “reduced MCL-1 expression” and the “MCL-1 expression compared to β-actin” value (MCL-1; 1 μM, 16 hrs) was “completely blocked expression”.

`Nc1ncn([C@@H]2O[C@H](CO)[C@@H](O)[C@H]2O)c(=O)n1` [azacitidine] showed an EC50 (MV 4-11 cells; DMSO 24 hours, then azacitidine only 72 hours) of 1780 nM and an EC50 (MV 4-11 cells; alvocidib 80 nM 24 hours, then azacitidine 72 hours, normalized to alvocidib only) of 641 nM.
